Reference: patent US10239883B2, “4-imidazopyridazin-1-yl-benzamides as BTK inhibitors” (Merck Sharp & Dohme B.V., priority 2011, dated 2019)

How the values were obtained:
[1] = biological target: Lyn enzyme (Homo sapiens (Human), UniProt P07948); assay: Lyn enzyme activity, IMAP fluorescence polarization assay; conditions: for EC50 Lyn activity values: IMAP, 60 min pre-incubation, 2 μM ATP, bin bound in μM
[2] = biological target: Btk enzyme (His-Btk) (Homo sapiens (Human), UniProt Q06187); assay: Btk enzyme activity, IMAP fluorescence polarization assay; conditions: 60 min pre-incubation, 5 μM ATP
[3] = biological target: Lck enzyme (Homo sapiens (Human), UniProt P06239); assay: Lck enzyme activity, IMAP fluorescence polarization assay; conditions: 60 min pre-incubation, 6 μM ATP, bin bound in μM
Sequence of Lck enzyme (P06239 whole entry): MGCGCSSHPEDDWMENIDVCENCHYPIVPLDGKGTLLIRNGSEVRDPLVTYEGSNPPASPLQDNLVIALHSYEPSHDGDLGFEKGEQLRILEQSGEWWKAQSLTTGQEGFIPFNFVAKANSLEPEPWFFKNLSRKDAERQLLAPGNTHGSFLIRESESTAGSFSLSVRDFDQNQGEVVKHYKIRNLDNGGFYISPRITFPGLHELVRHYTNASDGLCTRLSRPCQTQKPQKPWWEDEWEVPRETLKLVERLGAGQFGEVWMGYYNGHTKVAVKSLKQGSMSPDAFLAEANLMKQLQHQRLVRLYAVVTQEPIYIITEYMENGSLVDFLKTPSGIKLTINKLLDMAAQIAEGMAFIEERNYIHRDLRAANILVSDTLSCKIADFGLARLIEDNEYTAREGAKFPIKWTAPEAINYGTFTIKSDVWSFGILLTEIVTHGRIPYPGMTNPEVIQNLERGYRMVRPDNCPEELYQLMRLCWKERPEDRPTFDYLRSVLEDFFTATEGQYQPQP

Sequence of Btk enzyme (His-Btk) (Q06187 whole entry): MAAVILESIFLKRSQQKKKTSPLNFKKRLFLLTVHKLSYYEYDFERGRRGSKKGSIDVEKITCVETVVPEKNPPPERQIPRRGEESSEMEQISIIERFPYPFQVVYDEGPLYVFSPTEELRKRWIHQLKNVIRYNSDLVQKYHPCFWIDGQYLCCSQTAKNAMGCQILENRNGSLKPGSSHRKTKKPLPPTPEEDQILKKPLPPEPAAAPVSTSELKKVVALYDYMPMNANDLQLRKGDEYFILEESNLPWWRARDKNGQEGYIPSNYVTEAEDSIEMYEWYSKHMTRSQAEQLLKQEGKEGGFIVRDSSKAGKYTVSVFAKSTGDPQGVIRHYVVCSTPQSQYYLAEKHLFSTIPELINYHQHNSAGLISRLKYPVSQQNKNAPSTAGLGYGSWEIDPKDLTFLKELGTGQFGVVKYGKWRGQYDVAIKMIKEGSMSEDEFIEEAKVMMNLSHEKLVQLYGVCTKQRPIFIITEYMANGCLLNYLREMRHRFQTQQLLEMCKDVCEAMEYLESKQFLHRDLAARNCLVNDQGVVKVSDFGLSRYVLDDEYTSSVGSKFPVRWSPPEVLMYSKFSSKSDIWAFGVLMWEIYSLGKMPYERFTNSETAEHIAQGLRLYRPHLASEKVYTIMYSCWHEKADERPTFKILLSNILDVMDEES
Sequence of Lyn enzyme (P07948 whole entry): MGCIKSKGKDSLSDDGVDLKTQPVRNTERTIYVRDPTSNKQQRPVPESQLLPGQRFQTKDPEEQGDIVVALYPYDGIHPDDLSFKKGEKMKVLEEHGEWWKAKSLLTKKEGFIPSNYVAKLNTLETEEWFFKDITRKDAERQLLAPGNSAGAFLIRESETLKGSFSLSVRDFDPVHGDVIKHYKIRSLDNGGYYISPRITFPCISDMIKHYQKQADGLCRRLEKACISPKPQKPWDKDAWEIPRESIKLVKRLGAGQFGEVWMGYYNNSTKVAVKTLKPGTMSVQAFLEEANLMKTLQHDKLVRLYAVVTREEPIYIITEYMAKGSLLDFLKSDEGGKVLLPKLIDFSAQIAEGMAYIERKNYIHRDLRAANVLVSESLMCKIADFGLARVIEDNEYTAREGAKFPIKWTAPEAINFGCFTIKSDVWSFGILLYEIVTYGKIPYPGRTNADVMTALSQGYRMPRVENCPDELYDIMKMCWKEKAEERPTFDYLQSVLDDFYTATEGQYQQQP

Row | Structure (SMILES) | EC50 Btk activity values ([2]; bin bound in nM) [nM] | EC50 Lck activity values [3] [µM] | further results
1 | CC#CC(=O)N1CCC[C@H]1c1nc(-c2ccc(C(=O)Nc3nccs3)cc2)c2c(N)nccn12 [Example 60, (S)-4-(8-amino-3-(1-but-2-ynoylpyrrolidin-2-yl)imidazo[1,5-a]pyrazin-1-yl)-N-(thiazol-2-yl)benzamide] | <100 | <1 | EC50 [1]: 0.1 to 1 µM; EC50 Lyn activity values [1]: <1 µM
2 | C=CC(=O)N1CCC[C@H]1c1nc(-c2ccc(C(=O)Nc3cc(C(F)(F)F)ccn3)cc2)c2c(N)nccn12 [Example 62, (S)-4-(3-(1-acryloylpyrrolidin-2-yl)-8-aminoimidazo[1,5-a]pyrazin-1-yl)-N-(4-(trifluoromethyl)pyridin-2-yl)benzamide] | – | <1 | –
3 | CC#CC(=O)N1CCCC[C@H]1c1nc(-c2ccc(C(=O)Nc3cc(CCC)ccn3)cc2)c2c(N)nccn12 [Example 64, (S)-4-(8-amino-3-(1-but-2-ynoylpiperidin-2-yl)imidazo[1,5-a]pyrazin-1-yl)-N-(4-propylpyridin-2-yl)benzamide] | – | <1 | –
4 | CCCc1ccnc(NC(=O)c2ccc(-c3nc([C@H](C)N(C)C(=O)/C=C/CN(C)C)n4ccnc(N)c34)cc2)c1 [Example 76, (S,E)-4-(8-amino-3-(1-(4-(dimethylamino)-N-methylbut-2-enamido)ethyl)imidazo[1,5-a]pyrazin-1-yl)-N-(4-propylpyridin-2-yl)benzamide] | – | <1 | –
5 | CC#CC(=O)N1CCC[C@H]1c1nc(-c2ccc(C(=O)Nc3cc(N4CCCC4)ccn3)cc2)c2c(N)nccn12 [Example 96, (S)-4-(8-amino-3-(1-but-2-ynoylpyrrolidin-2-yl)imidazo[1,5-a]pyrazin-1-yl)-N-(4-(pyrrolidin-1-yl)pyridin-2-yl)benzamide] | <100 | – | –
6 | COC/C=C/C(=O)N1CCCCCC1c1nc(-c2ccc(C(=O)Nc3ccccn3)cc2)c2c(N)nccn12 (stereo not drawn) [Example 97, (E)-4-(8-amino-3-(1-(4-methoxybut-2-enoyl)azepan-2-yl)imidazo[1,5-a]pyrazin-1-yl)-N-(pyridin-2-yl)benzamide] | <100 | – | –
7 | COC/C=C/C(=O)N1CCC[C@H]1c1nc(-c2ccc(C(=O)Nc3cc(C#N)ccn3)cc2)c2c(N)nccn12 [Example 98, (S,E)-4-(8-amino-3-(1-(4-methoxybut-2-enoyl)pyrrolidin-2-yl)imidazo[1,5-a]pyrazin-1-yl)-N-(4-cyanopyridin-2-yl)benzamide] | <100 | – | –
8 | CC#CC(=O)N1CCC[C@H]1c1nc(-c2ccc(C(=O)Nc3ccccn3)c(OC)c2)c2c(N)nccn12 [Example 99, (S)-4-(8-amino-3-(1-but-2-ynoylpyrrolidin-2-yl)imidazo[1,5-a]pyrazin-1-yl)-2-methoxy-N-(pyridin-2-yl)benzamide] | <100 | – | –
9 | COC/C=C/C(=O)N1CCC[C@H]1c1nc(-c2ccc(C(=O)Nc3ccccn3)c(OC)c2)c2c(N)nccn12 [Example 103, (S,E)-4-(8-amino-3-(1-(4-methoxybut-2-enoyl)pyrrolidin-2-yl)imidazo[1,5-a]pyrazin-1-yl)-2-methoxy-N-(pyridin-2-yl)benzamide] | <100 | – | –
10 | Nc1nccn2c([C@@H]3CCCN3C(=O)/C=C/c3ccccc3)nc(-c3ccc(C(=O)Nc4ccccn4)cc3)c12 [Example 104, (S,E)-4-(8-amino-3-(1-cinnamoylpyrrolidin-2-yl)imidazo[1,5-a]pyrazin-1-yl)-N-(pyridin-2-yl)benzamide] | – | <1 | EC50 Btk activity values ([2]; bin bound in μM): <1000 nM
11 | C[C@H](NC(=O)c1ccnc(Cl)n1)c1nc(-c2ccc(C(=O)Nc3ccccn3)cc2)c2c(N)nccn12 [Example 105, (S)-N-(1-(8-amino-1-(4-(pyridin-2-ylcarbamoyl)phenyl)imidazo[1,5-a]pyrazin-3-yl)ethyl)-2-chloropyrimidine-4-carboxamide] | <100 | – | –
12 | CC#CC(=O)N1CCC[C@H]1c1nc(-c2ccc(C(=O)Nc3cc(F)ccn3)cc2)c2c(N)nccn12 [Example 106, (S)-4-(8-amino-3-(1-but-2-ynoylpyrrolidin-2-yl)imidazo[1,5-a]pyrazin-1-yl)-N-(4-fluoropyridin-2-yl)benzamide] | <100 | – | –
13 | CC#CC(=O)NCc1nc(-c2ccc(C(=O)Nc3ccccn3)cc2)c2c(N)nccn12 [Example 112, 4-(8-amino-3-(but-2-ynamidomethyl)imidazo[1,5-a]pyrazin-1-yl)-N-(pyridin-2-yl)benzamide] | <100 | – | –
14 | CC#CC(=O)N(C)[C@@H](C)c1nc(-c2ccc(C(=O)Nc3cc(CCC)ccn3)cc2)c2c(N)nccn12 [Example 113, (S)-4-(8-amino-3-(1-(N-methylbut-2-ynamido)ethyl)imidazo[1,5-a]pyrazin-1-yl)-N-(4-propylpyridin-2-yl)benzamide] | <100 | – | –
15 | CCCc1ccnc(NC(=O)c2ccc(-c3nc([C@@H]4CCCCN4C(=O)/C=C/COC)n4ccnc(N)c34)cc2F)c1 [Example 114, (S,E)-4-(8-amino-3-(1-(4-methoxybut-2-enoyl)piperidin-2-yl)imidazo[1,5-a]pyrazin-1-yl)-2-fluoro-N-(4-propylpyridin-2-yl)benzamide] | <100 | – | –
16 | Nc1nccn2c([C@@H]3CCCN3C(=O)c3ccnc(Cl)n3)nc(-c3ccc(C(=O)Nc4cc(C(F)(F)F)ccn4)cc3)c12 [Example 119, (S)-4-(8-amino-3-(1-(2-chloropyrimidine-4-carbonyl)pyrrolidin-2-yl)imidazo[1,5-a]pyrazin-1-yl)-N-(4-(trifluoromethyl)pyridin-2-yl)benzamide] | <100 | – | –
17 | C=CC(=O)N1CCC[C@H]1c1nc(-c2ccc(C(=O)Nc3cc(C#N)ccn3)cc2)c2c(N)nccn12 [Example 122, (S)-4-(3-(1-acryloylpyrrolidin-2-yl)-8-aminoimidazo[1,5-a]pyrazin-1-yl)-N-(4-cyanopyridin-2-yl)benzamide] | – | <1 | –
18 | C=CC(=O)N1CCC[C@H]1c1nc(-c2ccc(C(=O)Nc3cc(C)ccn3)cc2)c2c(N)nccn12 [Example 124, (S)-4-(3-(1-acryloylpyrrolidin-2-yl)-8-aminoimidazo[1,5-a]pyrazin-1-yl)-N-(4-methylpyridin-2-yl)benzamide] | – | <1 | EC50 Lyn activity values [1]: <1 µM
19 | C=CC(=O)N1CCC[C@H]1c1nc(-c2ccc(C(=O)Nc3cc(CCC)ccn3)cc2)c2c(N)nccn12 [Example 125, (S)-4-(3-(1-acryloylpyrrolidin-2-yl)-8-aminoimidazo[1,5-a]pyrazin-1-yl)-N-(4-propylpyridin-2-yl)benzamide] | – | <1 | EC50 Lyn activity values [1]: <1 µM
20 | C=CC(=O)N1CCC[C@H]1c1nc(-c2ccc(C(=O)Nc3cc(CC)ccn3)cc2)c2c(N)nccn12 [Example 126, (S)-4-(3-(1-acryloylpyrrolidin-2-yl)-8-aminoimidazo[1,5-a]pyrazin-1-yl)-N-(4-ethylpyridin-2-yl)benzamide] | – | <1 | EC50 Lyn activity values [1]: <1 µM
21 | CC#CC(=O)N1CCC[C@H]1c1nc(-c2ccc(C(=O)Nc3cc(-c4ccccc4)ccn3)cc2)c2c(N)nccn12 [Example 132, (S)-4-(8-amino-3-(1-but-2-ynoylpyrrolidin-2-yl)imidazo[1,5-a]pyrazin-1-yl)-N-(4-phenylpyridin-2-yl)benzamide] | – | <1 | –
22 | C=CC(=O)N1CCC[C@H]1c1nc(-c2ccc(C(=O)Nc3cc(-c4ccccc4)ccn3)cc2)c2c(N)nccn12 [Example 133, (S)-4-(3-(1-acryloylpyrrolidin-2-yl)-8-aminoimidazo[1,5-a]pyrazin-1-yl)-N-(4-phenylpyridin-2-yl)benzamide] | – | <1 | EC50 Lyn activity values [1]: <1 µM
